Assay results: patent publication US8497286B2, “Organic compounds” (Novartis AG, priority 2007, dated 2013)

molecular target: recombinant human renin (Homo sapiens (Human), UniProt P00797); test: Renin inhibitory activity in vitro, FRET assay (item 2); type: biochemical; settings: recombinant human renin 0.5 nM, 2 h at 37° C., pH 7.4, peptide substrate 4 μM
Description: Inter alia the following in vitro tests may be used: • 1) Recombinant human renin (expressed in Chinese Hamster Ovary cells and purified using standard methods) at 7.5 nM concentration is incubated with test compound at various concentrations for 1 h at RT in 0.1 M Tris-HCl buffer, pH 7.4, containing 0.05 M NaCl, 0.5 mM EDTA and 0.05% CHAPS. Synthetic peptide substrate […] is added to a final concentration of 2 μM and increase in fluorescence is recorded at an excitation wave-length of 350 nm and at an emission wave-length of 500 nm in a microplate spectro-fluorimeter. IC50 values are calculated from percentage of inhibition of renin activity as a function of test compound concentration (Fluorescence Resonance Energy Transfer, FRET, assay). […] Synthetic peptide substrate […] is added to a final concentration of 4 μM and increase in fluorescence is recorded at an excitation wave-length of 340 nm and at an emission wave-length of 485 nm in a microplate spectro-fluorimeter. IC50 values are calculated from percentage of inhibition of renin activity as a function of test compound concentration (Fluorescence Resonance Energy Transfer, FRET, assay). […] The enzyme reaction is stopped by adding an excess of a blocking inhibitor. The product of the reaction is separated by capillary electrophoresis and quantified by spectrophotometric measurement at […] wave-length. IC50 values are calculated from percentage of inhibition of renin activity as a function of test compound concentration. […] The enzyme reaction is stopped by adding an excess of a blocking inhibitor. The product of the reaction is separated by capillary electrophoresis and quantified by spectrophotometric measurement at […] wave-length. IC50 values are calculated from percentage of inhibition of renin activity as a function of test compound concentration. […] Renin inhibitory activity was assessed in vitro by the method as outlined above in item 2).

recombinant human renin, sequence (P00797 67-406): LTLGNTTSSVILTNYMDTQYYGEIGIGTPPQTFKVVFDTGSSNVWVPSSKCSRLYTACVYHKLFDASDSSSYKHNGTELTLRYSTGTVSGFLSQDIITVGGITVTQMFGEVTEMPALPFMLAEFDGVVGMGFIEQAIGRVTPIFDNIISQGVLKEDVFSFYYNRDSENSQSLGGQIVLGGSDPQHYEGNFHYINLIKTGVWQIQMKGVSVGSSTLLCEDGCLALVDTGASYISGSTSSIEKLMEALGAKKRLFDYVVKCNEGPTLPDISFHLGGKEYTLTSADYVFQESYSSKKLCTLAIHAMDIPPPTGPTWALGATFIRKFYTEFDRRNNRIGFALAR

First: CCOC[C@@H](CC(C)C)NC(=O)[C@@H]1CNC[C@H](C(=O)N(c2cc(OC)c(C(C)C)cn2)C2CC2)[C@@H]1O [Example 13]
Second: CCOC[C@@H](CC(C)C)NC(=O)[C@@H]1CNC[C@H](C(=O)N(c2cc(OCC)c(CC)cn2)C2CC2)[C@@H]1O [Example 14]
The IC50 of the first is 2.7-fold higher: 800 pM for the first, 300 pM for the second. The second is the more potent here.

Compared with `CCOC[C@H](NC(=O)[C@@H]1CNC[C@H](C(=O)N(c2cc(OCC)c(CC)cn2)C2CC2)[C@@H]1O)C(C)C` [Example 18], `CCOC[C@H](NC(=O)[C@@H]1CNC[C@H](C(=O)N(c2ccc(C(C)C)cn2)C2CC2)[C@@H]1O)C(C)C` [Example 16] is 4.2-fold higher in IC50: 600 pM for the first, 2500 pM for the second. The first is the more potent here.

Compared with `CCOC[C@@H](CC(C)C)NC(=O)[C@@H]1CNC[C@H](C(=O)N(CC(C)C)c2cc(OCCCOC)c(C(C)C)cn2)C1` [Example 3], `CCOC[C@@H](CC(C)C)NC(=O)[C@@H]1CNC[C@H](C(=O)N(CC(C)C)c2cc(OCCCO)c(C(C)C)cn2)[C@@H]1O` [Example 15] is 10-fold higher in IC50: 600 pM for the first, 6000 pM for the second.

Going from `COC[C@H]1CC[C@H](NC(=O)[C@@H]2CNC[C@H](C(=O)N(c3cc(OC)c(C(C)C)cn3)C3CC3)[C@@H]2O)CC1` [Example 17] to `CCOC[C@@H](NC(=O)[C@@H]1CNC[C@H](C(=O)N(c2ccc(C(C)C)cn2)C2CC2)C1)C1CCCCC1` [Example 2], the IC50 falls from 9000 pM to 3000 pM (3-fold). The second is the more potent here.

Molecule `CCOC[C@@H](CC(C)C)NC(=O)[C@@H]1CNC[C@H](C(=O)N(c2ccc(C(C)C)cn2)C2CC2)C1` [Example 1] has an IC50 of 900 pM.
